Tests used:
[1] = Dissolution time of acid solubilizers in purified water (FBRM); format: physicochemical; settings: 200 mg acid in 90 mL purified water, 250 rpm
Experimental: The results described in Table 1 were performed by adding 200 mg of the acid to 90 mL purified water using a Mettler Toledo mixing chamber held at the specified temperature with an upward pumping four blade impeller at 250 rpm. The disappearance of particles undergoing dissolution was monitored by focused-beam reflectance measurement (FBRM). Data was analyzed by reviewing individual 2 second measurement trends as well as trends averaged over 10 and 30 seconds.

[2] = Steady-state vs single dose exposure in various other clinical trials; format: in vivo, human; settings: different formulations
[3] = humans; efavirenz as inducer of CYP3A4; cited from earlier work
[4] = Disintegration behavior of tablets in approximately 250 mL water; format: physicochemical; settings: single tablet in approximately 250 mL water

In the case of O=C(O)/C=C/C(=O)O [Fumaric, Fumaric Acid], the Dissolution time ([1]; 25° C.) was 312 s and the Dissolution time ([1]; 37° C.) was 152 s.

With O=C(O)/C=C\C(=O)O [Maleic, Maleic Acid] the Dissolution time ([1]; 25° C.) was 4 s and the Dissolution time ([1]; 37° C.) was under 2 s.

In the case of CCCCOCCOc1ccc(-c2ccc3c(c2)/C=C(/C(=O)Nc2ccc([S@@+]([O-])Cc4cncn4CCC)cc2)CCCN3CC(C)C)cc1 [cenicriviroc, (S,E)-8-(4-(2-Butoxyethoxy)phenyl)-1-(2-methylpropyl)-N-(4-(((1-propyl-1H-imidazol-5-yl)methyl)sulfinyl)phenyl)-1,2,3,4-tetrahydrobenzo[b]azocine-5-carboxamide], the “Steady-state exposure level (AUC, day 10) relative to single dose exposure” value [2] is listed as “approximately 1.5 fold” and the “Decrease of cenicriviroc plasma concentration by efavirenz” value [3] is listed as “approximately 2 fold”.

In the case of Nc1ccn([C@@H]2CS[C@H](CO)O2)c(=O)n1 [lamivudine], the “Disintegration Observations (mode)” value [4] was “Rapid” and the Disintegration time [4] was “tion <30 seconds”.
